Series [1] relates to retinal ganglion cells (RGCs). Conditions: cited from earlier work.
Series [2] relates to lens-induced myopia (LIM) chicks. As to the kind of experiment: unilateral lens-induced myopia (LIM) chick model, intravitreal injection. The series is classed as in vivo, White Leghorn chicks (Gallus gallus). Here is the method:
To create a lens-induced myopia (LIM) animal model, concave lenses of −5 D were applied to the White Leghorn chicks (Gallus gallus), hatched from specific pathogen-free eggs (SPF, Jinan, China), until they were ten days old (PN10, baseline). All the animals were raised in standard cages at 25° C. with sufficient food and water daily under the 12 h:12 h light/dark cycle. The central ambient luminance over the cages was maintained at around 260 lux.
Turning to FIG. 1, starting from ten days old (PN10), the LIM chicks received four intravitreal injections in four consecutive days, i.e., PN10, PN11, PN12 and PN13 (s101). LIM chicks were randomly assigned to two groups, including LIM chicks (n=6) with vehicle injection (1% DMSO with 1% β-CDs) (101b) and LIM chicks (n=7) with celastrol injection (74 μM celastrol dissolved in 1% DMSO with 1% β-CDs) (101a), and no gender preference was selected in the experimental groupings. β-CDs were selected as a drug carrier of celastrol because of its doughnut-shaped cavities with hydrophilic outer and hydrophobic inner surfaces to form a complex with the celastrol to enhance the solubility, stability and permeation of celastrol in vivo. The freshly prepared solution (10 μl) was injected monocularly with a 0.3-mL syringe (31-gauge needle, BD Medical, Le Pont deClaix, France) into the vitreous through the sclera, choroid, and retina close to the margin of the upper orbit. Immediately following the first injection on PN10, the LIM chicks' right (or left) eyes were assigned to −5 D lenses (treated eyes 102a), and no lens was attached to the fellow eyes (control eyes 102b) (s102). The treated eyes 102a covered with lens in each LIM chick (unilateral LIM) received the subsequent celastrol injection 101a or vehicle 101b on PN11, PN12 and PN13, whereas there was no treatment for the contralateral (control) eye 102b.
After 7-day LIM (PN17), the lenses were removed for 2 hours (s103). The refractive error and ocular parameters were recorded separately at baseline (PN10), 7-day LIM (PN17), and after 2-hour recovery (PN17+2 hr) using the steak retinoscopy and high-frequency ultrasonography (s104). Refractive errors were detected using a streak retinoscope, and ocular parameters were measured using a high-frequency A-scan ultrasound system with a 30 MHz transducer (Panametrics, Inc., Waltham, MA), respectively, before and after treatments. The spherical equivalent (S.E.) was calculated from the refractive status (S.E.=spherical power+½ cylindrical power). Axial length (AL) was defined from the front of the cornea to the back of the vitreous chamber.
Biometric data obtained from unilateral LIM chicks treated with or without celastrol according to the scheme depicted in Example 1 and FIG. 1 were analyzed. First of all, after the 7-day lens treatment period (PN1, the interocular differences (differences between the lens-treated eyes and the contralateral fellow eyes) were calculated for the three ocular parameters (refractive error, vitreous chamber depth, and axial length), and the results are shown in FIGS. 2A-2C, respectively. Because choroid thickness change is believed to be an indicator of progression to myopia, the choroidal thickness was also measured after a 2-hour recovery, and the results are shown in FIG. 2D. The mean interocular differences and choroidal thickness changes are presented with ±SD. The significance between celastrol and vehicle groups was analyzed using an unpaired t-test with equal variance.

Series [3] can be described thus: body weight of unilateral LIM chicks after 7-day LIM. The series is classed as in vivo, White Leghorn chicks (Gallus gallus). As to conditions: after 7-day LIM (PN17), 74 μM intravitreal x4 days. An excerpt: The present disclosure provides a method for reducing myopia progression by administering a therapeutically effective amount of celastrol via intravitreal injection to a vitreous or via a non-invasive route, such as topically to the eye, e.g., as an eye drop containing a therapeutically effective amount of celastrol administered to a cornea or conjunctiva of a subject's eye. […] Change of body weight before and after 7-day LIM and choroidal thickness of a uvea of the celastrol group after 2-hr removal of the lens from the unilateral LIM chicks following the 7-day LIM were also quantified to show no adverse side effect but an increase in choroidal thickness induced by a low-dose celastrol. […] For instance, if celastrol is administered via the intravitreal injection, based on the difference in vitreous volume between the animal model tested and the human being, the human equivalent dose of celastrol could be determined. Taking chicken's vitreous volume as an illustrative example, if the celastrol is administered at about 74 μM via intravitreal injection to the chicken's vitreous, assuming that the vitreous volume of a chicken in general is about 200 μl, based on an estimated human vitreous volume (about 4.5 ml), the human equivalent dose of celastrol via intravitreal injection is determined to be about 1.665 mM. […]

For series [4], the system named is neuroendocrine chromaffin cells. As to conditions: 1 μM celastrol; cited from earlier work.

“And” between values parts separate entries of the source, which are not always exact repeats. Equal entries are not always repeated. Where two headings read alike, the source gives them in different places.

The term inhibition denotes the percentage by which the read-out fell short of the control. For `CC1=C(O)C(=O)C=C2C1=CC=C1[C@@]2(C)CC[C@@]2(C)[C@@H]3C[C@](C)(C(=O)O)CC[C@]3(C)CC[C@]12C` [celastrol], in series [1] (injection of 1 mg/kg celastrol), the “increase in average number of retinal ganglion cells (RGCs) compared to controls” value was “approximately 80%”. Moreover, the “increase in average number of retinal ganglion cells (RGCs) compared to controls” value in series [1] (injection of 5 mg/kg celastrol) is recorded as approximately 78%. The “interocular difference in refractive error (spherical equivalent), mean±SD” value in series [2] (74 μM celastrol, 10 μl intravitreal q.d. PN10-PN13, after 7-day LIM (PN17), lens-treated minus fellow eye, n=7) is −1.68±2.03 D. In addition, in series [2] (74 μM intravitreal x4 days, after 2-hour recovery from 7-day LIM (PN17+2 hr), P=0.072 vs vehicle), the “choroidal thickness change, mean±SD” value was 65.98±20.89 μm. In addition, the “interocular difference in axial length (AL), mean±SD” value in series [2] (74 μM intravitreal x4 days, after 7-day LIM (PN17), A-scan, P=0.054 vs vehicle) is 0.088±0.109 mm. Moreover, the “interocular difference in vitreous chamber depth (VCD), mean±SD” value in series [2] (74 μM intravitreal x4 days, after 7-day LIM (PN17), A-scan, n=7) came to 0.190±0.105 mm. Further, in series [2] (Gallus gallus, 168 h, celastrol group vs vehicle group, 74 μM intravitreal, 7-day LIM, read-out: inhibition of myopia based on refractive error data), the inhibition at 74 µM was approximately 46.3%. Also, the “averaged shift of relative myopia in interocular difference, vehicle group versus celastrol group (mean)” value in series [2] (after 7-day LIM (PN17)) is given as −1.45 D. Moreover, in series [2] (after 7-day LIM (PN17), P>0.05), the “enlargement of VCD in vehicle group compared with celastrol group” value worked out at 0.070 mm and the “numerical elongation of AL in vehicle group compared with celastrol group (mean)” value worked out at 0.174 mm. For the same compound, the “inhibition of myopia based on axial length data” value in series [2] (celastrol group vs vehicle group, 74 μM intravitreal, 7-day LIM) is ~66.4% and ~46.2%. In series [2] (intravitreal injection at the dose tested (74 μM)), the myopia progression result is listed as “could suppress myopia progression”. The “body weight compared with vehicle group” value in series [3] is “no retardation of growth regarding body weight”. In addition, in series [4], the increase in dopamine is reported as 6 fold.

(Values after patent US20250144055A1, “METHOD AND COMPOSITION FOR REDUCING MYOPIA PROGRESSION” (THE HONG KONG POLYTECHNIC UNIVERSITY, priority 2023, published 2025).)
